For 24 molecules, melting point results are on record in US6667325B1, “Substituted pyrazole compounds” (Teikoku Hormone Mfg. Co., Ltd., priority 1999, dated 2003).

With `Cn1nc(-c2ccc(F)cc2)c(-c2ccncc2)c1C(O)CCc1ccccc1` (stereo not drawn) [Example 15, 3-(4-Fluorophenyl)-5-(1-hydroxy-3-phenylpropyl)-1-methyl-4-(4-pyridyl)pyrazole], the melting point lay within 62 to 65 °C.
As for `Fc1ccc(-c2n[nH]c(C=CCc3cccnc3)c2-c2ccncc2)cc1` [Example 26, 3(5)-(4-Fluorophenyl)-4-(4-pyridyl)-5(3)-[3-(3-pyridyl)-1-propenyl]pyrazole], the figure is 187 to 188 °C.
With `CC(=Cc1[nH]nc(-c2ccc(F)cc2)c1-c1ccncc1)Cc1cccnc1` [Example 27, 3(5)-(4-Fluorophenyl)-5(3)-[2-methyl-3-(3-pyridyl)-1-propenyl]-4-(4-pyridyl)pyrazole] the figure was 215.5 to 217.5 °C; with `Cn1nc(-c2ccc(F)cc2)c(-c2ccncc2)c1C=CCc1ccccc1` [Example 29, 3-(4-Fluorophenyl)-1-methyl-5-(3-phenyl-1-propenyl)-4-(4-pyridyl)pyrazole], 136 to 137 °C; with `Fc1ccc(-c2n[nH]c(CCCc3ccccc3)c2-c2ccncc2)cc1` [Example 31, 3(5)-(4-Fluorophenyl)-5(3)-(3-phenylpropyl)-4-(4-pyridyl)pyrazole], 155.5 to 156.5 °C.
As for `Fc1ccc(-c2n[nH]c(CCCc3ccccn3)c2-c2ccncc2)cc1` [Example 40, 3(5)-(4-Fluorophenyl)-4-(4-pyridyl)-5(3)-[3-(2-pyridyl)propyl]pyrazole], the figure is 143 to 144.5 °C.
On to `Fc1ccc(-c2n[nH]c(CCCc3cccnc3)c2-c2ccncc2)cc1` [Example 43, 3(5)-(4-Fluorophenyl)-4-(4-pyridyl)-5(3)-[3-(3-pyridyl)propyl]pyrazole], for which the melting point lay within 207 to 210 °C.
Molecule `Fc1ccc(-c2n[nH]c(CCCn3cccn3)c2-c2ccncc2)cc1` [Example 55, 3(5)-(4-Fluorophenyl)-5(3)-[3-(1-pyrazolyl)propyl]-4-(4-pyridyl)pyrazole] had a melting point of 144.5 to 146.5 °C.
Consider `Cn1nc(-c2ccc(F)cc2)c(-c2ccncc2)c1CCCc1ccc([N+](=O)[O-])cc1` [Example 56, 3-(4-Fluorophenyl)-1-methyl-5-[3-(4-nitrophenyl)propyl]-4-(4-pyridyl)pyrazole], for which the melting point was in the range of 129.1 to 131.8 °C.
With `Cn1nc(-c2ccc(F)cc2)c(-c2ccncc2)c1CCCc1ccc(N)cc1` [Example 57, 5-[3-(4-Aminophenyl)propyl]-3-(4-fluorophenyl)-1-methyl-4-(4-pyridyl)pyrazole] the figure was 80.5 to 81.1 °C; with `Cn1nc(-c2ccc(F)cc2)c(-c2ccncc2)c1CCCc1ccccc1` [Example 58, 3-(4-Fluorophenyl)-1-methyl-5-(3-phenylpropyl)-4-(4-pyridyl)pyrazole], 83 to 87 °C; with `COc1ccc(CNC(=O)c2c(-c3ccncc3)c(-c3ccc(F)cc3)nn2C)cc1` [Example 69, 3-(4-Fluorophenyl)-5-(4-methoxybenzylaminocarbonyl)-1-methyl-4-(4-pyridyl)pyrazole], 162.3 to 164.8 °C.
Take `COc1ccc(CN(C)C(=O)c2[nH]nc(-c3ccc(F)cc3)c2-c2ccncc2)cc1` [Example 73, 3(5)-(4-Fluorophenyl)-5(3)-(N-methyl-4-methoxybenzylaminocarbonyl)-4-(4-pyridyl)pyrazole]: the melting point is 225.8 to 228.4 °C.
With `CCN(Cc1ccccc1)C(=O)c1[nH]nc(-c2ccc(F)cc2)c1-c1ccncc1` [Example 74, 5(3)-(N-Ethylbenzylaminocarbonyl)-3(5)-(4-fluorophenyl)-4-(4-pyridyl)pyrazole] the figure was 202.9 to 204.6 °C; with `CCn1nc(-c2ccc(F)cc2)c(-c2ccncc2)c1C(=O)N(C)Cc1ccccc1` [Example 75, 1-Ethyl-5-(N-methylbenzylaminocarbonyl)-3-(4-fluorophenyl)-4-(4-pyridyl)pyrazole], 148 to 149.3 °C; with `CCN(Cc1ccccc1)C(=O)c1c(-c2ccncc2)c(-c2ccc(F)cc2)nn1CC` [Example 76, 1-Ethyl-5-(N-ethylbenzylaminocarbonyl)-3-(4-fluorophenyl)-4-(4-pyridyl)pyrazole], 114.9 to 116.7 °C.
With `CN(Cc1ccccc1)C(=O)c1c(-c2ccncc2)c(-c2ccc(F)cc2)nn1C` [Example 77, 3-(4-Fluorophenyl)-1-methyl-5-(N-methylbenzylaminocarbonyl)-4-(4-pyridyl)pyrazole] the figure was 149.1 to 150.2 °C; with `COc1ccc(CN(C)C(=O)c2c(-c3ccncc3)c(-c3ccc(F)cc3)nn2C)cc1` [Example 79, 3-(4-Fluorophenyl)-1-methyl-5-(N-methyl-4-methoxybenzylaminocarbonyl)-4-(4-pyridyl)pyrazole], 150.1 to 152.6 °C.
As for `CCn1nc(-c2ccc(F)cc2)c(-c2ccncc2)c1C(=O)N(C)Cc1ccccn1` [Example 80, 1-Ethyl-3-(4-fluorophenyl)-5-(N-methyl-2-pyridylmethylaminocarbonyl)-4-(4-pyridyl)pyrazole], the figure is 144.4 to 146.8 °C.
Molecule `CN(Cc1ccccc1)C(=O)c1c(-c2ccncc2)c(-c2ccc(F)cc2)nn1CCO` [Example 81, 3-(4-Fluorophenyl)-1-(2-hydroxyethyl)-5-(N-methylbenzylaminocarbonyl)-4-(4-pyridyl)pyrazole] had a melting point of 135.9 to 138.1 °C.
As for `Fc1ccc(-c2n[nH]c(COCc3ccccc3)c2-c2ccncc2)cc1` [Example 82, 5(3)-(Benzyloxymethyl)-3(5)-(4-fluorophenyl)-4-(4-pyridyl)pyrazole], the figure is 177.6 to 180.2 °C; as for `CC(OCc1ccccc1)c1[nH]nc(-c2ccc(F)cc2)c1-c1ccncc1` (stereo not drawn) [Example 83, 5(3)-[1-(Benzyloxy)ethyl]-3(5)-(4-fluorophenyl)-4-(4-pyridyl)pyrazole], 169.2 to 173.5 °C; as for `O=C(Cc1ccccc1)Cc1[nH]nc(-c2ccc(F)cc2)c1-c1ccncc1` [Example 86, 3(5)-(4-Fluorophenyl)-5(3)-(2-oxo-3-phenylpropyl)-4-(4-pyridyl)pyrazole], 187.7 to 193.5 °C.
On to `Cn1nc(-c2ccc(F)cc2)c(-c2ccncc2)c1CC(=O)Cc1ccccc1` [Example 87, 3-(4-Fluorophenyl)-1-methyl-5-(2-oxo-3-phenylpropyl)-4-(4-pyridyl)pyrazole], for which the melting point lay in the range of 148.1 to 151 °C.
